Data: patent US20240368226A1, “Cyclic Cell Penetrating Peptides For Treating Neisseria Gonorrhoeae Infections” (priority 2023, published 2024)
Where a SMILES comes first, the peptide text is derived from it. Bridges are numbered along the chain shown (N, C = ends). [ ]: non-standard residue; d: D form. Ahx = NCCCCCC(=O)O

Key:
sheep red blood cells = assay type: cell-based
Description: In vitro assessment of hemolysis is important in determining the potential cytotoxicity of any material or drug that would be in contact with blood. Various protocols for determining hemolytic potential have been reported. A procedure recommended for analysis of the hemolytic potential of drug substances for RBCs using 0.1% Triton as the positive control and a 1 h incubation period was performed.
The CPPs or the vehicle (DMSO and 0.1% Triton X-100), were diluted in PBS. Washed pooled sheep red blood cells (sRBCs; Rockland, R405-0050, 10% v/v) were diluted to 2.1% in PBS. Then 190 μL of the cell suspension was added to the wells of a 96-well plate (Corning CellBIND). Solutions (10 μL) containing the linear or DE or TE cyclized forms of the CPP at 4,000 or 2,000 μM or the DMSO and PBS vehicle were added to wells with sRBCs in triplicate. As a positive control three wells were treated with 10 μL of 2% Triton X-100. The 96 well plates were incubated at 37° C. and 5% CO2 for 1 h, and then centrifugated at 1,000×g for 5 min. Supernatant (100 μL) was transferred to a new plate and then analyzed on the Epoch microtiter plate reader at 405-nm. Results are expressed as % hemolysis, which was calculated according to the following equation: % hemolysis=[(405 nm absorbance (Abs) of RBCs in the peptide solution-405 nm Abs in PBS)/(405 nm Abs in 0.1% Triton X-100-405 nm ABs in PBS]×100. Values of >25% hemolysis were defined as poor, 10-25% medium, and <10% as non-hemolytic according to recommended guidelines.

[1] = test system: activated THP-1 monocytic cells; experiment: LDH release cytotoxicity, THP-1; assay type: cell-based, human; design: cytotoxicity, THP-1: unit of the concentration uncertain; settings: for cytotoxicity, THP-1: 100 (unit uncertain)
Description: (§1) To determine whether the CPPs were cytotoxic for human cells, the relative amount of LDH released from immortalized End1/E6E7 endocervical cells, ME 180 cervical cells and THP-1 monocytic cells was measured following 18 h treatment (FIG. 9A-C). […] The cytotoxicity of the endogenous AMP LL-37 was analyzed as a comparator.
(§2) We analyzed the levels of lactate dehydrogenase (LDH) released from dying human End1/E6E7 epithelial endocervical cells1, ME-180 epithelial cervical2, and THP-1 monocytes due to cytotoxicity from exposure to the CPP structural analogs or LL-37 using the Cyquant LDH Cytotoxicity Assay Kit (Invitrogen ThermoFisher Scientific). The THP-1 cells were activated overnight by incubation with 10 ng/ml of phorbol myristate acetate (PMA; Sigma-Aldrich). After washing, cells were trypsinized, and then 1.0×10^4 cells in 100-μL media were plated per well in 96-well plates. For the activated THP-1 and ME-180 cells, Opti-MEM (Gibco) with 1% FBS was used. For the End1/E6E7 cells Keratinocyte-Scrum Free Media (ThermoFisher Scientific) with supplements was used. After plating, the activated THP-1 cells were incubated for 4-5 h and the End1/E6E7 and ME-180-cells were incubated overnight. Next stock solutions of the CPPs or LL-37 were diluted in PBS and aliquots were added to wells to create final concentrations of 100 and 200 μM of the CPPs, or 20 and 40 μM of LL-37 in total volumes of 100 μL per well. Negative control wells were treated with vehicle only, which was 1% DMSO in media. Vehicle controls for LL-37 were wells with Opti-MEM with 1% FBS only. After adding the test reagents, plates were gently mixed and incubated at 37° C. and 5% CO2 for 18 h. Positive control wells were treated with 10 μL of the Triton X-100 Lysis Buffer provided with the Cyquant kit according to the directions of the vendor. Then the levels of LDH in supernatants were quantified using a kit (Roche, Mannheim, DE, USA) with detection on an Epoch (Biotek Instruments, Winooski, Vermont, USA) microtiter plate reader at 490 nm with 680 nm subtracted. The results were reported as the percentage of LDH released from cells treated with LL-37 or CPP relative to LDH released from control cells treated with vehicle-only.

ME-180 cervical cells = experiment: LDH release cytotoxicity, ME-180; assay type: cell-based, human; design: cytotoxicity, ME-180: unit of the concentration uncertain
Description: as §1, §2

[2] = test system: End1/E6E7 endocervical cells; experiment: LDH release cytotoxicity, End1/E6E7; assay type: cell-based, human; design: cytotoxicity, End1/E6E7: unit of the concentration uncertain
Description: as §1, §2

[3] = test system: S. aureus strains 8325-4 and Newman; assay type: cell-based, Staphylococcus aureus
Description: The sensitivity of a Gram positive species was also tested.
N. flavescens strain 4322, N. lactamica strain 1934, and N. subflava strain 52, were available from the collections of the late Dr. Herman Schneider of the Walter Reed Army Institute of Research and of the Neisseria Repository that was formerly housed at UC Berkeley. The 8325-4 and Newman are strains of S. aureus. The latter is β-hemolytic.
S. aureus were grown overnight on Difco GC agar containing 1% BBL Isovitalex Enrichment. Using a sterile cotton swab, bacterial colonies were placed in suspension in GC broth containing 1% BBL Isovitalex. Absorbance of the bacterial suspension at 595 nm was determined to enable dilution to approximately 4×10^6 cells/mL in GC broth. Aliquots of the suspension containing 8×10^5 bacteria along with the CPPs, diluted from stock solutions in DMSO, were added in GC broth containing 1% BBL Isovitalex to make a total volume of 200 μL/well. Bacteria in GC broth with Isovitalex and 1% DMSO were added to vehicle-only control wells. […] After incubation in 5% CO2 at 37° C. for 18 h, plates were analyzed at 600-nm on an Epoch microtiter plate reader. The percentage inhibition of each sample was determined relative to the absorbance of the blank (GC broth only) and the vehicle-only controls. […] If no growth was observed on the plate, then that test concentration was determined to be inhibitory.

[4] = in vivo; cited from earlier work
[5] = test system: invasion of ME-180 cells by FA1090 1-81-S2 gonococci; experiment: Invasion of human cervical epithelial cells by gonococci; assay type: cell-based; settings: LL-37 20 μM; moi of 5; 4 h
Description: Because the CPP was bactericidal for N. gonorrhoeae and, furthermore, could penetrate the bacteria, it was postulated that treatment may prevent invasion of human epithelial cells. Therefore, the effect of the CPP on the invasion of a human cervical epithelial cell line, ME-180, was tested using the AMP LL-37 for comparison. FA1090 1-81-S2 gonococci at a moi of 5 were incubated with ME-180 cells in 96-well plates with vehicle only, LL-37 (20 μM), or the CPP (100 μM) for 4 h.

N=C(N)NCCC[C@@H]1NC(=O)CCCCCNC(=O)[C@H](CCCNC(=N)N)NC(=O)[C@H](CCCNC(=N)N)NC(=O)CCCCCNC(=O)[C@H](CCCNC(=N)N)NC(=O)[C@H](CCCNC(=N)N)NC(=O)CCCCCNC(=O)[C@H](CCCNC(=N)N)NC(=O)[C@H](CCCNC(=N)N)NC(=O)CCCCCNC(=O)[C@H](CCCNC(=N)N)NC(=O)[C@@H](N)CSSC[C@@H](C(N)=O)NC1=O [DS cyclized CPP, CRXRRXRRXRRXRC—NH2] (H-CR[Ahx]RR[Ahx]RR[Ahx]RR[Ahx]RC-NH2; disulfide 1-14)
hemolysis of sheep RBCs (sheep red blood cells): no hemolysis | cell death (LDH), THP-1 ([1]; 100 µM, 18 h): significantly increased | percentage of dead cells compared to the Triton X-100 treated controls, THP-1 ([1]; 100 and 200 mM): less than 20% | percentage of dead cells compared to the Triton X-100 treated controls, ME-180 (ME-180 cervical cells; 100 and 200 mM): less than 20% | percentage of dead cells compared to the Triton X-100 treated controls, End1/E6E7 ([2]; 100 and 200 mM): less than 20%

N=C(N)NCCC[C@@H]1NC(=O)CSC[C@@H](C(N)=O)NC(=O)[C@H](CCCNC(=N)N)NC(=O)CCCCCNC(=O)[C@H](CCCNC(=N)N)NC(=O)[C@H](CCCNC(=N)N)NC(=O)CCCCCNC(=O)[C@H](CCCNC(=N)N)NC(=O)[C@H](CCCNC(=N)N)NC(=O)CCCCCNC(=O)[C@H](CCCNC(=N)N)NC(=O)[C@H](CCCNC(=N)N)NC(=O)CCCCCNC1=O [TE cyclized CPP, c [RXRRXRRXRRXRC(S—)]] ({CH2CO}-R[Ahx]RR[Ahx]RR[Ahx]RR[Ahx]RC-NH2; thioether N-13)
hemolysis of sheep RBCs (sheep red blood cells): no hemolysis | cytotoxicity compared to DS cyclized CPP, THP-1 ([1]; 200 μM, 18 h): less cytotoxic compared to the DS cyclized CPP | cytotoxicity compared to linear CPP, THP-1 ([1]; 200 μM, 18 h): more cytotoxic | cytotoxicity, THP-1 [1]: virtually no cytotoxicity | cytotoxicity compared to DS cyclized CPP, ME-180 (ME-180 cervical cells; 200 μM, 18 h): less cytotoxic compared to the DS cyclized CPP | cytotoxicity, ME-180 (ME-180 cervical cells; 100 (unit uncertain)): virtually no cytotoxicity | MIC for S. aureus [3]: > 100 µM | cytotoxicity compared to DS cyclized CPP, End1/E6E7 ([2]; 200 μM, 18 h): less cytotoxic compared to the DS cyclized CPP | cytotoxicity compared to linear CPP, End1/E6E7 ([2]; 200 μM, 18 h): less cytotoxic compared to the linear CPP | cytotoxicity, End1/E6E7 ([2]; 100 (unit uncertain)): virtually no cytotoxicity

CC(=O)N[C@H](CSSC[C@H](N)C(=O)O)C(=O)N[C@H](C)C(=O)N[C@H](CCCNC(=N)N)C(=O)N[C@H](CCCNC(=N)N)C(=O)N[C@H](CCCNC(=N)N)C(=O)N[C@H](C)C(=O)N[C@H](CCCNC(=N)N)C(N)=O [etelcalcetide]
effective half-life [4]: 3 to 4 days

N=C(N)NCCC[C@H](NC(=O)CCCCCNC(=O)[C@H](CCCNC(=N)N)NC(=O)[C@H](CCCNC(=N)N)NC(=O)CCCCCNC(=O)[C@H](CCCNC(=N)N)NC(=O)[C@H](CCCNC(=N)N)NC(=O)CCCCCNC(=O)[C@H](CCCNC(=N)N)NC(=O)[C@H](CCCNC(=N)N)NC(=O)CCCCCNC(=O)[C@@H](N)CCCNC(=N)N)C(=O)O [linear CPP, RXRRXRRXRRXR, reference compound] (H-R[Ahx]RR[Ahx]RR[Ahx]RR[Ahx]R-OH)
hemolysis of sheep RBCs (sheep red blood cells): no hemolysis | cytotoxicity, THP-1 [1]: virtually no cytotoxicity | cell death (LDH released), THP-1 ([1]; 100 or 200 μM, 18 h): not significantly increased | cytotoxicity, ME-180 (ME-180 cervical cells; 100 (unit uncertain)): virtually no cytotoxicity | cytotoxicity, End1/E6E7 ([2]; 100 (unit uncertain)): virtually no cytotoxicity

LL-37 [reference compound]
invasion of ME-180 cells [5]: completely inhibited invasion | levels of cell death compared to the vehicle-only control, THP-1 ([1]; 20 or 40 μM LL-37, 18 h, p<0.001): more than doubled | LDH levels, ME-180 (ME-180 cervical cells; LL-37 20 µM, 18 h): more than doubled | cytotoxicity, ME-180 (ME-180 cervical cells; LL-37 20 and 40 mM): significant cytotoxicity | LDH levels, End1/E6E7 ([2]; LL-37 20 µM, 18 h): more than doubled | cytotoxicity, End1/E6E7 ([2]; LL-37 20 and 40 mM): significant cytotoxicity
